“And” between values parts separate entries of the source, which are not always exact repeats. Equal entries are not always repeated. Marks after values point to notes of the source that are not given here.
Columns and labels:
P-gp = molecular target: T1, P-gp (Homo sapiens, UniProt P08183); assay: Efflux transport assay in P-gp HEK293 membrane vesicles; format: biochemical; conditions: 5 and 50 µM, 10 min
T1 construct: made in house; host or cells: membrane vesicles from HEK293 cells expressing the transporter
T1 sequence (P08183 whole entry): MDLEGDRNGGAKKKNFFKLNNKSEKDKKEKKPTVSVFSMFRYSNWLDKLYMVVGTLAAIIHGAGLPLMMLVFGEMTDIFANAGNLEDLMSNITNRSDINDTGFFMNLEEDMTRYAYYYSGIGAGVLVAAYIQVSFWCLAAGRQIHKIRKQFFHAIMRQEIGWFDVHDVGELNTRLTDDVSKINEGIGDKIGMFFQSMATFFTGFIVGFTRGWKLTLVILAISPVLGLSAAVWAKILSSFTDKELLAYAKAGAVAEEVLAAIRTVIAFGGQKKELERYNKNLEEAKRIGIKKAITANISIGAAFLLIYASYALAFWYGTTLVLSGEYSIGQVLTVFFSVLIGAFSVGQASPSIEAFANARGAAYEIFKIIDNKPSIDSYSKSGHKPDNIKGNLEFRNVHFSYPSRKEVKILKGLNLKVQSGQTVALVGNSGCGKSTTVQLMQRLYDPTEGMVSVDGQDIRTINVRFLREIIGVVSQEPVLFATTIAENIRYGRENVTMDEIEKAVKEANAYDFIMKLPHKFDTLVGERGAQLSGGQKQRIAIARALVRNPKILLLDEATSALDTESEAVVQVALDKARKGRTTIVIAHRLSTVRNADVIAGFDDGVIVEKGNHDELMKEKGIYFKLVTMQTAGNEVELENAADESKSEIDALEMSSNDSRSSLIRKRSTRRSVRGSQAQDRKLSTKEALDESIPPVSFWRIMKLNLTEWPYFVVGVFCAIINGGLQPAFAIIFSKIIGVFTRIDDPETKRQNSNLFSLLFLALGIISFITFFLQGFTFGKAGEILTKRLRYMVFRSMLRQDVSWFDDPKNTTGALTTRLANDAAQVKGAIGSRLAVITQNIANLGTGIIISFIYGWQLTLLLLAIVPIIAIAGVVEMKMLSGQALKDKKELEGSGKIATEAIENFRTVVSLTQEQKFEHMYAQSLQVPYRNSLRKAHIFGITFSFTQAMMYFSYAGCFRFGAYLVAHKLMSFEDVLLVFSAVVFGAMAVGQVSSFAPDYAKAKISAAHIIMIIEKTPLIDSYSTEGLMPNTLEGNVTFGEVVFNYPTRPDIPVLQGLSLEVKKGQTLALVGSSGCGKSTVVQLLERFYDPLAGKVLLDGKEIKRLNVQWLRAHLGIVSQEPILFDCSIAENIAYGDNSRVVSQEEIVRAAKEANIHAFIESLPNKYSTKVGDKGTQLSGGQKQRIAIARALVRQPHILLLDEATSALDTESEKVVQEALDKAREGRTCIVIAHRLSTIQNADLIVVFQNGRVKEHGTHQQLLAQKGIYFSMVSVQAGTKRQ
Procedure: Membrane vesicles, 5 μL (7.5 μg of total protein), prepared as previously reported, were aliquoted to wells of a conical‐shaped 96‐well plate. The plate was incubated for 10 min at +37°C before the initiation of transport by adding 25 μL of TS‐buffer (10 mM Tris, 250 mM sucrose, pH adjusted to 7.4 with HEPES) containing magnesium chloride (10 mM final in the reaction), adenosine triphosphate (ATP) or adenosine monophosphate (AMP), 4 mM final in the reaction, and the transporter substrate and inhibitor. Each experiment included triplicate samples for both ATP and AMP samples. The concentrations of rosuvastatin and N‐methyl‐quinidine were 1 μM in the BCRP and P‐gp vesicle inhibition assays, respectively. […] The transport reactions were quenched by adding 200 μL of cold TS‐buffer to each well and transferring the samples to a 96‐multiwell 1.0 μm glass fiber filter plate (Merck Millipore, Darmstadt, Germany) kept under vacuum. Wells were further washed four times with cold TS‐buffer, after which the plate was dried under vacuum. The compounds were eluted from the plate by applying 100 μL of 75% methanol containing 0.1% formic acid to each well and incubating at 250 RPM for 30 min before centrifuging the samples to an analysis plate at 2800 g for 2 min. For the rosuvastatin samples, the elution solvent contained rosuvastin‐d6 as the internal standard. […]

OATP1B3 = molecular target: T2, OATP1B3 (Homo sapiens, UniProt Q9NPD5); assay: OATP1B3 inhibition, rosuvastatin uptake into transporter-expressing HEK293 cells; format: cell-based; conditions: for IC50: IC50 (95% CI), μM OATP1B3, 2.5 μM rosuvastatin, 2 min, 30 min preincubation; for Calculated R-value OATP1B3: R = 1 + (I in,max,u/IC50), FDA cut-off ≥ 1.1
T2 construct: expressed in transfected cells; host or cells: HEK293 (recombinant baculovirus-mediated transduction)
T2 sequence (Q9NPD5 1-702): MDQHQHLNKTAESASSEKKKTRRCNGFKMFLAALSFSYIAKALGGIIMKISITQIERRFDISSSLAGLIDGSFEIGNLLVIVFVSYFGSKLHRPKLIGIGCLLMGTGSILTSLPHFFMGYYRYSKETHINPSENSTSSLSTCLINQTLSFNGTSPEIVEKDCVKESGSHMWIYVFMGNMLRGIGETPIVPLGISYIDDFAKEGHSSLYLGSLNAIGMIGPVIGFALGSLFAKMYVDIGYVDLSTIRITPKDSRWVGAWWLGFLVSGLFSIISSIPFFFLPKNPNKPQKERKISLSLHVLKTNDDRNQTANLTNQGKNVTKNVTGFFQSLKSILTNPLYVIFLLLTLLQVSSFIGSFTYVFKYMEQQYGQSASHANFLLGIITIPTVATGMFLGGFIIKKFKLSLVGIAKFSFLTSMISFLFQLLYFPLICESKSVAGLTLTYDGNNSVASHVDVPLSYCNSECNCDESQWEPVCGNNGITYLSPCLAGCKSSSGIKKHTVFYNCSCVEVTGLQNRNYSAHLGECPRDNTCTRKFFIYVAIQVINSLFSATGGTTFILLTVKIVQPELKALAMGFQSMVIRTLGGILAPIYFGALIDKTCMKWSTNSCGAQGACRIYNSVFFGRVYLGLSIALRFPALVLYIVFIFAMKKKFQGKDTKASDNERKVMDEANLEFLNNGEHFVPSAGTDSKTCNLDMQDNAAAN
Procedure: The human transporters OATP1B1, OATP1B3, OATP2B1, and OAT1‐OAT4 and a negative control protein (enhanced yellow fluorescent protein, eYFP) were transiently expressed in human embryonic kidney 293 (HEK293) cells by recombinant baculovirus‐mediated transduction. Baculoviruses carrying human genes for the transporters were prepared as reported previously. HEK293 cells were cultured in DMEM containing 10% fetal bovine serum at 37°C and 5% CO2 and passaged two to three times per week. For the transport studies, 0.05 × 10^6 cells for 48‐well plates (OATPs) or 0.06 × 10^6 cells for 24‐well plates (OATs) were seeded onto cell‐culture treated well plates coated with poly‐D‐lysine. After 1 day, cells were transduced to produce recombinant proteins by changing media to DMEM containing 30 μL (48‐well plates) or 60 μL (24‐well plates) of recombinant baculovirus and 3 mM (OATs) or 5 mM (OATPs) sodium butyrate in a total media volume of 500 μL. The cells were cultured for a further 2 days before the transport assays.
For the transport studies, media were removed and cells were washed once with warm transport uptake buffer (TP‐buffer—pH 7.4 HBSS with 25 mM HEPES and 4 mM sodium bicarbonate). Each experiment included triplicate (OATP) or duplicate (OAT) samples for every test condition. The uptake was started by removing liquid from wells and applying warm TP‐buffer (200 μL for 24‐well plates or 125 μL for 48‐well plates) containing a test compound to cells. Transport assays were terminated after a pre‐specified incubation time (reported in figure legends) by removing substrate solution and washing cells three times with cold TP‐buffer (300 μL for 48‐well plates and 400 μL for 24‐well plates). For the liquid chromatography mass spectrometry (LC–MS) analysis, compounds were extracted from cells with 125 μL (48‐well plates) or 250 μL (24‐well plates) of an ultrapure‐water solution containing 75% methanol and 0.1% formic acid, shaking at 250 RPM for 30 min. […] Samples were transferred to well plates, centrifuged at 3000 g for 30 min, and transferred to a new well plate for the analysis.
In the OATP inhibition assays, inhibitors in warm TP‐buffer were directly applied to cells after media removal, followed by a 30‐min preincubation step in the presence of inhibitors. […] OAT1 and OAT3 cells were lysed with 200 μL of 1 M sodium hydroxide for 10 min, and 150 μL of these samples were transferred to a black well plate for fluorescein quantification. […]
For the inhibition data analysis, the average of measured concentrations in the control cells was subtracted from the average of measured concentrations in transporter‐expressing cells for each inhibitor concentration and then normalized to the vehicle sample that represents 100% transport activity. […]

transport by P-gp (P-gp)	IC50 (OATP1B3)	Calculated R-value OATP1B3 (OATP1B3)	SMILES
did not transport	6.7 µM and 6.68 µM	1.8 ^a	Cc1onc(-c2c(Cl)cccc2Cl)c1C(=O)N[C@@H]1C(=O)N2[C@@H]1SC(C)(C)[C@@H]2C(=O)O [Dicloxacillin]
did not transport	21 µM	1.7 ^a	Cc1onc(-c2c(F)cccc2Cl)c1C(=O)N[C@@H]1C(=O)N2[C@@H]1SC(C)(C)[C@@H]2C(=O)O [Flucloxacillin]
